In US8313949B2, “Detecting phospholipidosis and diagnosing lysosomal storage disorders” (Nextcea Inc., priority 2009, dated 2012):

How the values were obtained:
rats [1] = conditions: rat, in vivo
Experimental: The relationship between amiodarone, azithromycin, or citalopram exposure and the occurrence of drug-induced phospholipidosis was investigated in Fisher rats. Rats were treated with amiodarone (50 mg/kg/day), azithromycin (100 mg/kg/day), citalopram (90 mg/kg/day), or no drug for 4-weeks. Urine samples were collected from each animal and prepared for analysis using a liquid/liquid extraction method. The urine samples (200 μl urine per rat) were mixed with cold 3:1 chloroform/methanol (v/v) (400 μl) and vortexed before adding 0.1% formic acid (aq.) (100 μl). The samples were vortexed again, allowed to sit for 5 min, and centrifuged for 15 min. The bottom (organic) layer was carefully removed and concentrated to dryness. The samples were reconstituted to 30 μl with 0.05% formic acid in 2:1 acetonitrile/methanol (v/v).
The molecular profile of each urine sample was acquired using liquid chromatography coupled to mass spectrometry (LC/MS). Injections were made onto a 150×2.00 mm Synergi Hydro-RP column (Phenomenex, Torrance, Calif., USA) using an a Gilson 235 auto-injector (Gilson, Inc., Middletown, Wis., USA) and an Agilent 1100 binary pump (Agilent Technologies, Palo Alto, Calif., USA). Mobile phase A was 0.25% ammonium hydroxide, 0.05% formic acid in 88:12 methanol/water (v/v). Mobile phase B was 0.25% ammonium hydroxide, 0.05% formic acid in 80:20 methanol/hexane (v/v). […]

[2] = test system: bronchoalveolar lavage (BAL) cells; conditions: patients with amiodarone pulmonary toxicity; Martin and Standing 1988; cited from earlier work
rats [3] = experiment: Urinary di-C22:6-BMP levels during 17-day azithromycin treatment (Example 4); type: in vivo, rat; conditions: azithromycin 150 mg/kg/day, all isoforms (FIG. 9)
Experimental: The methods described above were used to evaluate the tissue phospholipidosis induced by azithromycin (150 mg/kg/day) in rats over a 17-day period. Urine samples were collected from the rats on Days 11 and 17 and subjected to the assay. […] On Day 11, the mean level (n=5 rats per group) of di-C22:6-BMP in urine was increased by 2.6-fold in the rats treated with azithromycin compared to the controls. On Day 17, the mean level (n=5 rats per group) of di-C22:6-BMP in urine was increased approximately by 4.5-fold in the azithromycin treated rats compared to the control rats.

level of di-22:6-PG in urine (rats [1]) | increase of mean level of di-C22:6-BMP in urine compared to controls, Day 11 (rats [3]; Day 11, n=5 rats per group) [fold] | increase of mean level of di-C22:6-BMP in urine compared to controls, Day 17 (rats [3]; Day 17, n=5 rats per group) [fold] | SMILES | increase in total BMP in BAL cells compared to control subjects [2] | increase in total PG in BAL cells compared to control subjects [2]
not | – | – | CCN(CC)CCCC(C)Nc1ccnc2cc(Cl)ccc12 (stereo not drawn) [chloroquine] | – | –
increased | – | – | CCCCc1oc2ccccc2c1C(=O)c1cc(I)c(OCCN(CC)CC)c(I)c1 [amiodarone] | +64% | +1866%
– | 2.6 | ~4.5 | CC[C@H]1OC(=O)[C@H](C)[C@@H](O[C@H]2C[C@@](C)(OC)[C@@H](O)[C@H](C)O2)[C@H](C)[C@@H](O[C@@H]2O[C@H](C)C[C@H](N(C)C)[C@H]2O)[C@](C)(O)C[C@@H](C)CN(C)[C@H](C)[C@@H](O)[C@]1(C)O [azithromycin] | – | –
